We go through one compound from US20240075004A1, “VERY-LONG-CHAIN POLYUNSATURATED FATTY ACIDS, ELOVANOID HYDROXYLATED DERIVATIVES, AND METHODS OF USE” (The Board of Supervisors of Louisiana State University and …, priority 2020, published 2024).

The structures appear in SMILES notation.

In the experiment the test system is IL-6, IL-1β, IL-8/CXCL8, CCL2/MCP-1, CXCL1/KC/GRO, VEGF, ICAM1(CD54), IL-10. The experiment can be described thus: Sandwich ELISA of cytokines and chemokines in HNEpC challenged with stressors. As to conditions: allergens. The experiment is classed as cell-based, human. The source says: • Lipopolysaccharide (LPS) from Escherichia coli serotype 0111:B4 (Catalog #L4391) were obtained from Sigma-Aldrich. LPS is the principal component of Gram-negative bacteria that activates the innate immune system through its recognition by Toll-like receptor 4 (TLR4). This leads to a signaling cascade that ultimately results in the activation of NF-κB and the production of proinflammatory cytokines. LPS we used for our experiments is a preparation of smooth (S)-form LPS purified from the Gram-negative E. coli 0111:B4 that was used at 30 μg/mL to challenge HNEpC. • Polyinosinic-polycytidylic acid (abbreviated as poly(I:C) or poly(rI):poly(rC)) is a synthetic analog of double-stranded viral RNA (dsRNA), a molecular pattern associated with viral infection such as loss of epithelial integrity, increased production of mucus and inflammatory cytokines. Poly(I:C), a TLR3 agonist activates the antiviral pattern recognition receptors TLR3, RIG-I/MDA5 and PKR, thereby inducing signaling via multiple inflammatory pathways, including NF-κB and IRF. High Molecular Weight Poly(I:C) comprises long strands of inosine poly(I) homopolymer annealed to strands of cytidine poly(C) homopolymer. The average size of Poly(I:C) HMW is from 1.5 kb to 8 kb. […]
(ELISA stands for enzyme-linked immunosorbent assay.)

With `CC/C=C\C[C@H](O)\C=C/C=C/C=C/[C@H](O)C/C=C\C/C=C\CCCCCCCCCCCCCCC(=O)O` [ELV-N-34], the “allergen-triggered production of inflammatory cytokines, chemokines, ICAM1 and induction of autophagy and SASP” value is “attenuated”.
